Test results: US6929667B2, “Method for the fluorescent whitening of cotton” (Ciba Specialty Chemicals Corporation, priority 2000, dated 2005)

How the values were obtained:
[1] = Determination of fibre affinity: Ganz whiteness of bleached cotton after exhaust treatment at 95° C.; settings: for Whiteness Value: Ganz whiteness, 0.2% whitener on fibre weight, exhaust method, liquor ratio 1:40, up to 95° C., measure of affinity to cotton
Protocol: Various bleached cotton swatches are treated by the exhaust method in an aqueous bath having the following composition: • 0.2% of test fluorescent whitener (100% active substance), based on the weight of the fibre, • 0.5 ml/l Ultravon EL™, • 20 ml/l 3% aqueous sodium hydroxide solutions, • 2 ml/l 10% aqueous sodium silicate solution and • 3 ml/l 35% aqueous hydrogen peroxide solution.
The fluorescent whiteners used were compounds (102)-(104) of the present invention and a commercial product having the formula [drawing 11]
The treatment is conducted at a liquor ratio of 1:40 for 30 minutes at from 25 to 95° C., then for a further 60 minutes at 95° C. and, finally, cooled to 30° C. The swatches are removed from the treatment bath, rinsed and dried at 60° C.
Due to the high application temperature of 95° C., the tested compounds must have high affinity to cotton to provide high whiteness levels. Consequently, the whiteness values are a suitable measure of affinity, i.e. high whiteness corresponds to high affinity.
Whiteness was measured according to the method of Ganz, which is described in detail in the Ciba-Geigy Review, 1973/1 and also in the article “Whiteness Measurement”, ISCC Conference on Fluorescence and the Colorimetry of Fluorescent Materials, Williamsburg, February 1972, published in the Journal of Color and Appearance, 1, No. 5 (1972).

[2] = Determination of pH stability: appearance of 0.8 g/l solution at different pH values on storage; type: physicochemical; settings: 0.8 g/l in drinking water, dark, 25° C.
Protocol: (§1) The sensitivity of the test compounds (102)-(104) of the invention and of the commercial compound (103) to acidic pH values is evaluated in a bath and on the cotton fabric.
(§2) A solution containing 0.8 g/l of the test compound (as active ingredient) in drinking water (approximately 11° German hardness) is prepared and separate samples of the solution are adjusted to different pH values and stored in the dark at 25° C. The appearance of each sample is assessed immediately and also after 1, 2 and 4 hours storage.

[3] = Determination of pH stability: Ganz whiteness of bleached cotton padded with the stored solutions; settings: liquor pick-up 65%
Protocol: as §1, §2
Following the 4 hour appearance assessment, separate samples of bleached cotton are padded with the respective solutions (liquor pick-up 65%). The fabric samples are dried at 70° C. for 20 minutes and the whiteness values determined according to the method of Ganz.

[4] = cotton padded with pH 3 solution after 4 hours storage
[5] = cotton padded with pH 4 solution after 4 hours storage
[6] = cotton padded with pH 5 solution after 4 hours storage
[7] = cotton padded with pH 6 solution after 4 hours storage
[8] = cotton padded with pH 7 solution after 4 hours storage

SMILES | Whiteness Value [1] | Appearance of solution ([2]; 1 hour, pH 4) | Appearance of solution ([2]; 1 hour, pH 5) | Appearance of solution ([2]; 1 hour, pH 6) | Appearance of solution ([2]; 1 hour, pH 7) | Appearance of solution ([2]; 2 hours, pH 4) | Appearance of solution ([2]; 2 hours, pH 5) | Appearance of solution ([2]; 2 hours, pH 6) | Appearance of solution ([2]; 2 hours, pH 7) | Appearance of solution ([2]; 4 hours, pH 4) | Appearance of solution ([2]; 4 hours, pH 5) | Appearance of solution ([2]; 4 hours, pH 6) | Appearance of solution ([2]; 4 hours, pH 7) | Appearance of solution ([2]; Immediate, pH 5) | Appearance of solution ([2]; Immediate, pH 6) | Appearance of solution ([2]; Immediate, pH 7) | Whiteness [3, 4] | Whiteness [3, 5] | Whiteness [3, 6] | Whiteness [3, 7] | other results
CC(O)CN(CC(C)O)c1nc(Nc2ccc(S(=O)(=O)CCO)cc2)nc(Nc2ccc(/C=C/c3ccc(Nc4nc(Nc5ccc(S(=O)(=O)CCO)cc5)nc(N(CC(C)O)CC(C)O)n4)cc3S(=O)(=O)[O-])c(S(=O)(=O)[O-])c2)n1.[Na+].[Na+] (stereo not drawn) [(102)] | 234 | clear | clear | clear | clear | clear | clear | clear | clear | clear | clear | clear | clear | clear | clear | clear | 171 | 192 | 194 | 193 | Affinity to the fibre (judged from whiteness value) ([1]; whiteness only slightly lower than that of the conventional commercial FWA): high affinity to the fibre; Appearance of solution ([2]; Immediate, pH 4): clear; Whiteness [3, 8]: 193
O=S(=O)([O-])c1cc(Nc2nc(Nc3ccc(S(=O)(=O)CCO)cc3)nc(N(CCO)CCO)n2)ccc1/C=C/c1ccc(Nc2nc(Nc3ccc(S(=O)(=O)CCO)cc3)nc(N(CCO)CCO)n2)cc1S(=O)(=O)[O-].[Na+].[Na+] [(103)] | 224 | cloudy | clear | clear | clear | cloudy | clear | clear | clear | cloudy | clear | clear | clear | clear | clear | clear | 53 | 115 | 160 | 184 | Appearance of solution ([2]; 1 hour, pH 3): cloudy; Appearance of solution ([2]; 2 hours, pH 3): cloudy; Appearance of solution ([2]; 4 hours, pH 3): cloudy; Appearance of solution ([2]; Immediate, pH 3): cloudy; Whiteness [3, 8]: 186
